Patent US10160948B2, “Pluripotent embryonic-like stem cells, compositions, methods and uses thereof” (ABT HOLDING COMPANY, priority 1999, dated 2018)

Tested on: human mesenchymal stem cells
Experiment: Insulin/dexamethasone analysis to identify progenitor and pluripotent cells (morphology)
Type: cell-based
Method: Aliquots of CM-SkM, CF-SkM, NHDF, PAL#3, and PAL#2 cells were thawed and plated individually at 10,000 cells per well in 1% gelatin-coated 24-well plates [Corning, Corning, N.Y.] utilizing PM-B. After 24 hr PM-B was removed and replaced with either control medium, insulin testing medium, or dexamethasone testing medium. Control medium consisted of 98% (v/v) Opti-MEM containing 0.01 mM β-mercapto-ethanol, 1% (v/v) HS3, and 1% antibiotic-antimycotic solution. Insulin testing medium consisted of control medium containing 2 μg/ml insulin [Sigma]. Dexmethasone testing medium was composed of 98% Opti-MEM, 0.01 mM β-mercaptoethanol, 1% serum [HS3, HS9 (horse serum, lot number 90H-0701, Sigma) or FBS (fetal bovine serum, lot no. 3000L, Atlanta Biologicals, Norcross, Ga.)] and 1% antibiotic-antimycotic solution. […]
Discernible changes in phenotypic expression of the cells were assayed morphologically. These morphological tissue cellular types were identical to those previously noted in avian and mouse mesenchymal stem cells incubated with insulin or dexamethasone and extensively analyzed by histochemical and immunochemical procedures (Young et al., 1995; Rogers et al., 1995; Young et al., 1993; Young, 1999; Young et al., 1998). […]
Discernible changes in phenotypic expression of the putative mesenchymal stem cells were determined using morphological criteria. […]

insulin was tested, and the “effect on phenotypic expression at 80 cell doublings” value was “had no effect on the cells”.
